Test results published in patent US9452152B2, “Fe(III) complex compounds for the treatment and prophylaxis of iron deficiency symptoms and iron deficiency anemias” (Vifor (International) AG, priority 2012, dated 2016).

Key:
[1] = test system: Male NMRI (SPF) mice fed a low-iron diet; test: Fe utilization in iron-deficient mouse model (hemoglobin and body weight increase); type: in vivo; conditions: for Utilization n 15 d (abs. %): mice, stomach tube, 2 mg iron/kg body weight/day, days 1-5 and 8-12, utilization on day 15; for iron utilization, Example according to the invention: comparison table, compounds of the invention
Procedure: The excellent Fe utilizations that can be accomplished through the Fe complexes according to the invention were measured by means of the following mouse model.
(In each case 6 animals per substance were used. There was a negative group (water) with 6 animals and as a positive group FeSO4 was used with 6 animals, too).
Male NMRI (SPF) mice (approximately 3 weeks old) were fed a low-iron diet (approx. 5 ppm iron) for approximately 3 weeks. The iron complexes were then administered to them by means of a stomach tube (2 mg iron/kg body weight/day) for 2 times 5 days, with an interruption of 2 days (days 1-5 and 8-12). Utilization on day 15 was calculated from the hemoglobin increase and the body weight increase in accordance with the formula
0.07=Factor for 70 ml blood per kg body weight (BW)
Hb1=Hemoglobin level (g/l) on day 1
Hb2(3)=Hemoglobin level (g/I) on day 8 (or 15)
BW4=body weight (g) on day 1
BW9(14)=body weight (g) on day 8 (or 15)
Hb1 Control=average hemoglobin level (g/l) on day 1 in the control group,
Hb2(3) Control=average hemoglobin level (g/l) on day 8 (or 15) in the control group,
BW4 Control=average body weight (g) on day 1 in the control group,
BW9(14) Control=average body weight (g) on day 8 (or 15) in the control group,
Fe Dos.=entire administered iron (mg Fe) over 5 or 10 days,
Δ Utilization=Fe tot. utilized (examined group)−Fe ut. Control group, utilized from food, (mg Fe)

[2] = Comparison of the pH-dependent solubility (photometric iron determination); type: physicochemical; conditions: water, pH 6.5 (phthalate buffer 0.1 m), 4 h, 25° C.; for Solubility based on amount of iron: ">" = weighed amount completely dissolved
Description: The pH was adjusted to 6.5 with a phthalate buffer (0.1 m). […] UV device type SPECORD 205 manufacturer Jena Analytik). This value represents the solubility of the iron complex. If the weighed amount of the iron complex was completely dissolved, the measured value was indicated by the prefix “>”.

| Substance | Utilization n 15 d (abs. %) [1] | iron utilization, Example according to the invention ([1]; mouse model) | optical evaluation: dissolved? [2] | Solubility based on amount of iron [2] | iron utilization (statement in words) ([1]; mouse model) |
| --- | --- | --- | --- | --- | --- |
| Tris-(2,4-dioxo-4-(pyrrolidine-1-yl)butaneamide)-iron(III)-complex [Example 4] | 92 abs. % |  |  |  |  |
| Tris-(4-(morpholine-4-yl)-2,4-dioxobutaneamide)-iron(III)-complex [Example 2] | 75 abs. % | 75% |  |  |  |
| Tris-(N,N,N′,N′-tetramethyl-2-oxobutanediamide)-iron(III)-complex [Example 5] | 82 abs. % | 82% | yes | >550 µg/mL |  |
| Tris-(N,N-Dimethyl-3,4-dioxo-4-(pyrrolidine-1-yl)butaneamide)-iron(III) complex [Example 11] | 50 abs. % |  |  |  |  |
| Tris-(N^1,N^4,N^4-trimethyl-2-oxobutanediamide)-iron(III)-complex [Example 7] | 68 abs. % |  |  |  |  |
| Tris-(N^1-(2-methoxyethyl)-N^4,N^4-dimethyl-2-oxobutanamid)-iron(III)-complex [Example 16] | 65 abs. % |  | no | 450 µg/mL |  |
| Tris-(N^1-[2-(dimethylamino)-2-oxoethyl]-N^1,N^4,N^4-trimethyl-2-oxobutanediamide)-iron(III)-complex [Example 18] | 78 abs. % |  | no | 580 µg/mL |  |
| Tris-(N^4,N^4-dimethyl-2-oxobutanediamide)-iron(III)-complex [Example 1] | 98 abs. % | 98% | yes | 529 µg/mL | significantly improved iron utilization compared to Example 32 of WO11117225A1 |
| Tris-(N^4-(2-hydroxyethyl)-N^1,N^1,N^4-trimethyl-2-oxobutanediamide)-iron(III)-complex [Example 21] | 86 abs. % | 86% | no | 490 µg/mL |  |
| Tris-(N^4-(2-methoxyethyl)-N^1,N^1,N^4-trimethyl-2-oxobutanediamide)-iron(III)-complex [Example 13] | 70 abs. % |  | yes | >520 µg/mL |  |
| Tris-(N^4-[2-(dimethylamino)-2-oxoethyl]-N^1,N^1,N^4-trimethyl-2-oxobutanediamide)-iron(III)-complex [Example 12] | 80 abs. % |  | yes | >510 µg/mL |  |
| Tris-(ethyl-N-[4-(dimethylamino)-2,4-dioxobutanoyl]-N-methylglycinate)-iron(III)-complex [Example 17] | 91 abs. % |  | no | 470 µg/mL |  |
